Like-named read-outs stand apart in the source and are kept apart here.
What was measured:
[1] = system: HL-60 cells
[2] = system: HT-29 cells; experiment: Cytotoxicity; details: HT-29 colon cancer cells; for HT-29 ED50: 3–4 days, SRB
[3] = system: HL-60 cells; experiment: Cytotoxicity; details: HL-60 leukemia cells; for HL-60 ED50: 3–4 days, SRB
[4] = target: NF-κB p65 (Homo sapiens, UniProt Q04206); experiment: ELISA NF-κB p65 inhibition assay; type: cell-based; details: for ELISA NF-κB IC50: NF-κB p65, nuclear extract of HeLa cells treated with compound and TNF-α; for NF-κB inhibitory activity (in words): NF-κB p65 ELISA
Sequence of NF-κB p65 (Q04206 whole entry): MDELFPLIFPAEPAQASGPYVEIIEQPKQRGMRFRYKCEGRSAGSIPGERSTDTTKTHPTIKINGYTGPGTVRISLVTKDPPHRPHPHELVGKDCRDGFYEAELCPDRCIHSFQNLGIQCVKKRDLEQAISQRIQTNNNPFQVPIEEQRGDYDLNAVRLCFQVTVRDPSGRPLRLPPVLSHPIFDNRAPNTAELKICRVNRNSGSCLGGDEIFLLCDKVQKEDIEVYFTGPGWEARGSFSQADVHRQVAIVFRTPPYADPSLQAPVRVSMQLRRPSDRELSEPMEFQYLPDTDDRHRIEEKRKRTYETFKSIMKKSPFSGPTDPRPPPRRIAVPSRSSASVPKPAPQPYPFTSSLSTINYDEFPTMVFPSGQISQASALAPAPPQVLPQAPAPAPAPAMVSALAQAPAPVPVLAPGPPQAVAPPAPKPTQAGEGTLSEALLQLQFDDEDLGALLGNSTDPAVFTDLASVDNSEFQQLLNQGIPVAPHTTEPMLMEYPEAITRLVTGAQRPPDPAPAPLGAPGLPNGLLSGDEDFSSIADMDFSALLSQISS

[5] = system: HeLa cells; experiment: Cytotoxicity; details: for HeLa ED50: HeLa cervical cancer cells, 3–4 days, SRB
[6] = system: HT-29 cells
[7] = system: HeLa cells
[8] = system: HT-29 cells; experiment: Reactive oxygen species; type: cell-based; details: for Potentiating effect on intracellular ROS levels in the presence of H2O2: H2O2 50 μM
[9] = system: NF-κB; experiment: NF-κB evaluation in whole cells; type: cell-based; details: HeLa cells, IL-1α stimulation; compound 8 at 5 μg/ml
[10] = system: mitochondria transmembrane potential; experiment: Mitochondria transmembrane potential; type: cell-based; details: 2 h treatment, JC-1
[11] = system: P-388 cell line; details: cited from earlier work
[12] = system: NFAT-1; experiment: NFAT-1 assay; type: cell-based; details: 30 min incubation

Molecule | ELISA NF-κB IC50 [4] [µg/mL] | Cytotoxicity against HL-60 (in words) [1] | HT-29 ED50 [2] [µg/mL] | HL-60 ED50 [3] [µg/mL] | HeLa ED50 [5] [µg/mL] | other results
COC(=O)[C@@]12OC[C@]34[C@H]([C@@H](O)[C@@H]1O)[C@@]1(C)CC(=O)C(O)=C(C)[C@@H]1C[C@H]3OC(=O)[C@H](OC(=O)CC(C)C)[C@@H]24 [Compound 6, bruceine A] |  | highly cytotoxic | 1.6 | 0.069 | 0.6 | IC50 [4]: 4.21 µM; NF-κB inhibitory activity (in words) [4]: moderate NF-κB inhibitory activity; Cytotoxicity against HT-29 (in words) [6]: highly cytotoxic; Cytotoxicity against HeLa (in words) [7]: highly cytotoxic
Cc1c2ccncc2c(C)c2c1[nH]c1ccccc12 [Ellipticine, ellipticine, reference compound] |  |  | 3.5 | 1.3 | 3.6 | 
COC(=O)[C@@]12OC[C@]34[C@H]([C@@H](O)[C@@H]1O)[C@@]1(C)CC(=O)C(O)=C(C)[C@@H]1C[C@H]3OC(=O)[C@H](OC(=O)/C=C(\C)C(C)C)[C@@H]24 [Compound 5, bruceantin] |  |  | 0.012 | 0.0082 | 0.016 | Cytotoxicity against HT-29 (in words) [2]: highly cytotoxic; Cytotoxicity against HL-60 (in words) [3]: highly cytotoxic; IC50 [4]: 35.7 µM; NF-κB inhibitory activity (in words) [4]: moderate NF-κB inhibitory activity; Cytotoxicity against HeLa (in words) ([5]; HeLa cells): highly cytotoxic
COc1ccc([C@@]23Oc4cc(OC)cc(OC)c4[C@]2(O)[C@H](O)[C@H](C(=O)N(C)C)[C@H]3c2ccccc2)cc1 [Rocaglamide, reference compound] |  |  |  |  |  | Inhibition of NF-κB translocation into the nucleus [9]: inhibited the translocation
COc1cc(-c2cc(=O)c3c(O)cc(O)cc3o2)ccc1O [Compound 8, chrysoeriol] |  |  | >20 | 0.6 | >20 | Effect on mitochondrial transmembrane potential [10]: able to compromise the integrity of the mitochondrial membrane to a larger extent than the other test compounds; Cytotoxicity against HL-60 (in words) [3]: selective cytotoxicity against the HL-60 cell line; Potentiating effect on intracellular ROS levels in the presence of H2O2 [8]: exerted a potentiating effect; Elevation of intracellular ROS in the absence of H2O2 ([8]; compound alone): most significant elevation of intracellular ROS; Activity using the P-388 cell line [11]: moderately active; NFAT translocation from the cytoplasm to the nucleus [12]: Induced activation of NFAT was confirmed by its translocation to the nucleus; Inhibition of NF-κB translocation into the nucleus [9]: showed inhibition of translocation of NF-κB into the nucleus

Further lines, with some results ahead:

ELISA NF-κB IC50 [4] [µg/mL] | Molecule | Cytotoxicity against HL-60 (in words) [1] | HT-29 ED50 [2] [µg/mL] | HL-60 ED50 [3] [µg/mL] | HeLa ED50 [5] [µg/mL] | other results
11.5 | COc1cc([C@H]2Oc3cc(-c4cc(=O)c5c(O)cc(O)cc5o4)ccc3O[C@@H]2CO)ccc1O [Compound 7, (−)-hydnocarpin] | moderate cytotoxicity | 9.7 | 2.6 | >20 | Cytotoxicity against HT-29 (in words) [6]: moderate cytotoxicity
1.0 | C/C=C(\C)C(=O)O[C@@H]1C[C@]2(C)C(=CC[C@H]2[C@@H]2C[C@@H]([C@@H]3OC3(C)C)O[C@@H]2OC(C)=O)[C@@]2(C)[C@H]1[C@@]1(C)C=CC(=O)C(C)(C)[C@@H]1C[C@H]2OC(C)=O [Compound 4, bruceajavanone B] | selective cytotoxicity against the HL-60 cell line | >20 | 1.1 | >20 | Potentiating effect on intracellular ROS levels in the presence of H2O2 [8]: exerted a potentiating effect
>20 | bruceajavanone A 7-acetate [Compound 1] |  | >20 | >20 | >20 | 
5.3 | C/C=C(\C)C(=O)O[C@@H]1C[C@@]2(C)[C@H]([C@@H]3C[C@@H]([C@@H]4OC4(C)C)O[C@@H]3OC(C)=O)CC[C@]2(C)[C@@H]2CC=C3C(C)(C)C(=O)C[C@H](O)[C@]3(C)[C@H]21 [Compound 2, bruceajavaninone A] |  | >20 | >20 | >20 | 
>20 | bruceajavanone C [Compound 3] |  | >20 | >20 | >20 | 

Source: article PMC3013507 (Anticancer research, 2010)
